Experimental data published in US8097628B2, “Compounds” (Glaxo Group Limited, priority 2008, dated 2012).
Converted amounts (≈) assume the structure as drawn.

Each molecule was assayed on Mycobacterium tuberculosis H37Rv (assay: Mycobacterium tuberculosis H37Rv Inhibition Assay). Conditions: ATCC 25618 / H37Rv, H37Rv strain (ATCC25618), Middlebrook 7H9, resazurin fluorescence, read-out: MtB MIC.
Format: cell-based
Cc1cc(CNC2CCN(C[C@@H]3Cn4c(=O)ccc5ccc(=O)n3c54)CC2)cnc1C#N [Example 32, 5-{[(1-{[(1R)-4,9-dioxo-1,2-dihydro-4H,9H-imidazo[1,2,3-ij]-1,8-naphthyridin-1-yl]methyl}-4-piperidinyl)amino]methyl}-3-methyl-2-pyridinecarbonitrile] showed an MIC of 0.538 µg/mL (≈ 1.25 µM).
O=c1ccc2ccc(=O)n3c2n1C[C@H]3CN1CCC(NCc2cnc(CO)c(Cl)c2)CC1 [Example 56, (1R)-1-{[4-({[5-chloro-6-(hydroxymethyl)-3-pyridinyl]methyl}amino)-1-piperidinyl]methyl}-1,2-dihydro-4H,9H-imidazo[1,2,3-ij]-1,8-naphthyridine-4,9-dione] was tested, and the MIC was 0.3 µg/mL (≈ 0.658 µM).
COc1cc(CNC2CCN(CC3Cn4c(=O)ccc5ncc(=O)n3c54)CC2)ccc1C (stereo not drawn) [Example 57, 2-{[4-({[4-methyl-3-(methyloxy)phenyl]methyl}amino)-1-piperidinyl]methyl}-1,2-dihydro-3H,8H-2a,5,8a-triazaacenaphthylene-3,8-dione] gave an MIC of 1.09 µg/mL (≈ 2.5 µM).
Cl.O=c1ccc2ccc(=O)n3c2n1C[C@H]3CN1CCC(NCc2ccc(C(F)(F)F)nc2)CC1 [Example 59, (1R)-1-{[4-({[6-(trifluoromethyl)-3-pyridinyl]methyl}amino)-1-piperidinyl]methyl}-1,2-dihydro-4H,9H-imidazo[1,2,3-ij]-1,8-naphthyridine-4,9-dione hydrochloride] showed an MIC of 0.154 µg/mL.

Same assay, conditions: H37Rv inhibition assay, read-out: MIC value
In the case of Cc1ncc(CNC2CCN(C[C@@H]3Cn4c(=O)ccc5ccc(=O)n3c54)CC2)cc1F [Example 63, (1R)-1-[(4-{[(5-fluoro-6-methyl-3-pyridinyl)methyl]amino}-1-piperidinyl)methyl]-1,2-dihydro-4H,9H-imidazo[1,2,3-ij]-1,8-naphthyridine-4,9-dione], the MIC is reported as > 1 µg/mL.
In the case of O=c1ccc2ccc(=O)n3c2n1C[C@H]3CN1CCC(NCc2ccc(CO)c(Cl)c2)CC1 [Example 64, (1R)-1-{[4-({[3-chloro-4-(hydroxymethyl)phenyl]methyl}amino)-1-piperidinyl]methyl}-1,2-dihydro-4H,9H-imidazo[1,2,3-ij]-1,8-naphthyridine-4,9-dione], the MIC is reported as > 1 µg/mL.
COCCc1ncc(CNC2CCN(C[C@@H]3Cn4c(=O)ccc5ncc(=O)n3c54)CC2)cc1Cl [Example 65, (2R)-2-({4-[({5-chloro-6-[2-(methyloxy)ethyl]-3-pyridinyl}methyl)amino]-1-piperidinyl}methyl)-1,2-dihydro-3H,8H-2a,5,8a-triazaacenaphthylene-3,8-dione] was tested, and the MIC was > 1 µg/mL.
With CC(=O)OCc1ccc(CNC2CCN(C[C@@H]3Cn4c(=O)ccc5ccc(=O)n3c54)CC2)cc1Cl [Example 71, (2-chloro-4-{[(1-{[(1R)-4,9-dioxo-1,2-dihydro-4H,9H-imidazo[1,2,3-ij]-1,8-naphthyridin-1-yl]methyl}-4-piperidinyl)amino]methyl}phenyl)methyl acetate] the MIC was > 1 µg/mL.

Each molecule was assayed on E. coli 120 AcrAB- (assay: Antimicrobial Activity Assay, whole-cell broth microdilution (CLSI M7-A7)). Conditions: Escherichia coli, read-out: lowest MIC.
Format: cell-based
Method: Whole-cell antimicrobial activity was determined by broth microdilution using the Clinical Laboratory Standards Institute (CLSI) recommended procedure, Document M7-A7, “Methods for Dilution Susceptibility Tests for Bacteria that Grow Aerobically”.
In addition, compounds were evaluated against a panel of Gram-negative organisms including Haemophilus influenzae, Moraxella catarrhalis, Escherichia coli,
The minimum inhibitory concentration (MIC) was determined as the lowest concentration of compound that inhibited visible growth. A mirror reader was used to assist in determining the MIC endpoint.
Cc1cc(CNC2CCN(C[C@@H]3Cn4c(=O)ccc5ccc(=O)n3c54)CC2)cnc1C#N [Example 32, 5-{[(1-{[(1R)-4,9-dioxo-1,2-dihydro-4H,9H-imidazo[1,2,3-ij]-1,8-naphthyridin-1-yl]methyl}-4-piperidinyl)amino]methyl}-3-methyl-2-pyridinecarbonitrile] was tested, and the MIC was 4 µg/mL (≈ 9.29 µM).
